These results are taken from patent publication US8536354B2, “Steroidal ligands and their use in gene switch modulation” (Intrexon Corporation, priority 2008, dated 2013).

As usually defined, the EC50 is the concentration needed to bring the measured effect to its halfway point.

The test system of test [1] is Nephotettix cincticeps EcR (NcEcR-DEF). Nature of the test: Two-hybrid gene switch assay, NcEcR-DEF in NIH3T3 cells. Particulars: for rel max FI (20E), NC: max fold induction at any concentration relative to 20E; for rel max FI (PoA), NC: max fold induction at any concentration relative to PoA; for EC50: read-out: EC50 (μM), NC, NIH3T3 cells, luciferase, 48 h, ligand 0.01-33 μM.

Test [2] has as its target Bemisia argentifolii EcR (BaEcR-DEF) (Bemisia argentifolii (Bemisia tabaci biotype B / MEAM1), UniProt A0A6M3RDR8). Nature of the test: Two-hybrid gene switch assay, BaEcR-DEF in NIH3T3 cells. Particulars: for Emax: NIH3T3, 48 h.
In test [3] the target is T1, Amblyomma americanum EcR (AmaEcR-DEF) (Amblyomma americanum, UniProt O44338).
T1 sequence (O44338 291-570): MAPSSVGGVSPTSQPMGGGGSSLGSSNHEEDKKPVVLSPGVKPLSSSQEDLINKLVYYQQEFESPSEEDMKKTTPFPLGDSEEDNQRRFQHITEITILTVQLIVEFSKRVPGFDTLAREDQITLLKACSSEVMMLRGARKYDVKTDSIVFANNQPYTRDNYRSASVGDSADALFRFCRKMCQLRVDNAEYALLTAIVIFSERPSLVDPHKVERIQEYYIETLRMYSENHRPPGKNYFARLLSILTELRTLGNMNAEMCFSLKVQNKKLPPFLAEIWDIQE
T1 sequence (P28702 299-449 partner): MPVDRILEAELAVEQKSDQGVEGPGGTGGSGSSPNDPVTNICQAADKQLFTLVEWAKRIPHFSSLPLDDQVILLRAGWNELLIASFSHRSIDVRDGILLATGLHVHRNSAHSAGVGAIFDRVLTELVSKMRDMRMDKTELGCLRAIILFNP
In words: Two-hybrid gene switch assay, AmaEcR-DEF in NIH3T3 cells. The note with it: for Emax: NIH3T3, 48 h.

Test [4] concerns the target T2, wild-type Choristoneura fumiferana EcR (CfEcR-DEF) (Choristoneura fumiferana, UniProt O77255).
T2 sequence (O77255 219-541): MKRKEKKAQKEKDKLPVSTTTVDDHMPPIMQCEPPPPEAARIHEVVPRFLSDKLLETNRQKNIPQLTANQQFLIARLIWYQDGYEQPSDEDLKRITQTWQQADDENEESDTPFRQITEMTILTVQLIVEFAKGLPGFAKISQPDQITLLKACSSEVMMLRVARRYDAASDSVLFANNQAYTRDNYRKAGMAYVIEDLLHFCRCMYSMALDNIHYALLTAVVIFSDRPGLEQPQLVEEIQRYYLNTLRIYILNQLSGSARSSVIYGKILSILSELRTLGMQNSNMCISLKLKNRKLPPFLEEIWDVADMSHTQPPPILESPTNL
T2 sequence (P28702 299-449 partner): T1 sequence (P28702 299-449 partner)
In words: Two-hybrid gene switch assay, wild-type CfEcR-DEF (GAL4-EcR / VP16-RXR-USP chimera, luciferase) in NIH3T3 cells. The note with it: for Emax: NIH3T3, 48 h.

Test [5] concerns the target T3, Manduca sexta EcR (MsEcR) (Manduca sexta, UniProt P49883).
T3 sequence (P49883 293-531 limits assumed): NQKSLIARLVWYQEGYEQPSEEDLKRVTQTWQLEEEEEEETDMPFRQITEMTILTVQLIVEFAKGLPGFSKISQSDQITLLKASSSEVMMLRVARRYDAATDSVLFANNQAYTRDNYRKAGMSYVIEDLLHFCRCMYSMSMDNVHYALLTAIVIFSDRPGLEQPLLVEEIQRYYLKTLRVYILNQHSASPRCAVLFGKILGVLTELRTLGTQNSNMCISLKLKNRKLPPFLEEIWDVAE
In words: Two-hybrid gene switch assay, MsEcR-CDEF in NIH3T3 cells. Particulars: for rel max FI (20E), MS: max fold induction at any concentration relative to 20E; for rel max FI (PoA), MS: max fold induction at any concentration relative to PoA.

Setting [6] is: read-out: rel max FI (20E), AMA.
The mark [7] stands for this setting: read-out: rel max FI (PoA), AMA.

Where two headings read alike, the source gives them in different places.

Sequence of Bemisia argentifolii EcR (BaEcR-DEF) (P28702 298-449): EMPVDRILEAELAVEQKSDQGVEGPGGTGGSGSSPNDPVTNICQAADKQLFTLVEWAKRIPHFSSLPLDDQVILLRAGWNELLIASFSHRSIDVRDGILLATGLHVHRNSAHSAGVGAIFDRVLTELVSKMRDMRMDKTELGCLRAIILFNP
Sequence of Bemisia argentifolii EcR (BaEcR-DEF) (A0A6M3RDR8 entry or part of it): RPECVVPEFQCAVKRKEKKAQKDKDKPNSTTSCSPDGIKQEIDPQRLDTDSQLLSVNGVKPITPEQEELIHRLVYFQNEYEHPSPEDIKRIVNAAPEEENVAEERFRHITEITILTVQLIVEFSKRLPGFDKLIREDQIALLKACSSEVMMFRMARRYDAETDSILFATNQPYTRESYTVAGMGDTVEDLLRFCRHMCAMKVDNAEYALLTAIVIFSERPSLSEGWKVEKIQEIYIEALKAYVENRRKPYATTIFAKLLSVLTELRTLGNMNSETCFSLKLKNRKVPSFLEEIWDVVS

As to `CO[C@H](CCC(C)(C)O)[C@](C)(O)C1CC[C@@]2(O)C3=CC(=O)C4C[C@@H](O)[C@@H](O)CC4(C)C3CCC12C` (stereo partly drawn) [20E-22-methyl ether], in test [1], the “rel max FI (20E), NC” value is 1.02. In test [1], the “rel max FI (PoA), NC” value is given as 1.05. Further, the concentration for a half-maximal effect (EC50) was 2.59 µM in test [1]; roughly 3 µM in test [2]; roughly 1 µM in test [3]; greater than 33 µM in test [4]; roughly 10 µM in test [5]. Besides, the Emax amounted to 154% in test [2] (read-out: rel max FI (20E), BA); 123% in test [2] (read-out: rel max FI (PoA), BA); 108% in test [3] (setting [6]); 83% in test [3] (setting [7]); 7% in test [4] (read-out: rel max FI (20E), CF); 0% in test [4] (read-out: rel max FI (PoA), CF). The “rel max FI (20E), MS” value in test [5] (MsEcR) worked out at 1.29. In addition, in test [5] (MsEcR), the “rel max FI (PoA), MS” value came to 0.81.

In the case of `CO[C@@H]1C[C@H]2C(=O)C=C3[C@H](CC[C@]4(C)[C@@H]([C@@](C)(O)[C@H](O)CCC(C)(C)O)CC[C@@]34O)[C@@]2(C)C[C@@H]1O` [20E-3-methyl ether], the “rel max FI (20E), NC” value in test [1] stood at 1.01. The “rel max FI (PoA), NC” value in test [1] amounted to 1.04. The EC50 was 1.69 µM in test [1]; roughly 15 µM in test [2]; roughly 3.3 µM in test [3]; greater than 33 µM in test [4]; roughly 10 µM in test [5]. Also, the Emax came to 29% in test [2] (read-out: rel max FI (20E), BA); 23% in test [2] (read-out: rel max FI (PoA), BA); 91% in test [3] (setting [6]); 70% in test [3] (setting [7]); 115% in test [4] (read-out: rel max FI (20E), CF); 1% in test [4] (read-out: rel max FI (PoA), CF). Further, in test [5] (MsEcR), the “rel max FI (20E), MS” value is on record as 1.15. In addition, the “rel max FI (PoA), MS” value in test [5] (MsEcR) is 0.73.

Consider `COC1C[C@H]2C(=O)C=C3[C@H](CC[C@]4(C)[C@@H]([C@@](C)(O)C(CCC(C)(C)O)OC)CC[C@@]34OC)[C@@]2(C)CC1OC` (stereo partly drawn) [20E-2,3,14,22-tetramethyl ether], for which the “rel max FI (20E), NC” value in test [1] is 0.01. Moreover, the “rel max FI (PoA), NC” value in test [1] was determined as 0.01. In addition, the EC50 in test [1] was greater than 33 µM; in test [2] (read-out: EC50 (μM), BA, BaEcR, NIH3T3 cells, luciferase, 48 h, ligand 0.01-33 μM), greater than 33 µM; in test [3] (read-out: EC50 (μM), AMA, AmaEcR, NIH3T3 cells, luciferase, 48 h, ligand 0.01-33 μM), greater than 33 µM; in test [4] (read-out: EC50 (μM), CF, wild-type CfEcR, NIH3T3 cells, luciferase, 48 h, ligand 0.01-33 μM), greater than 33 µM; in test [5] (read-out: EC50 (μM), MS, MsEcR, NIH3T3 cells, luciferase, 48 h, ligand 0.01-33 μM), greater than 33 µM. For the same compound, the “rel max FI (20E), BA” value in test [2] (BaEcR, max fold induction at any concentration relative to 20E) is given as 0.02. Moreover, the “rel max FI (PoA), BA” value in test [2] (BaEcR, max fold induction at any concentration relative to PoA) is reported as 0.01. Besides, in test [3] (AmaEcR, max fold induction at any concentration relative to 20E), the “rel max FI (20E), AMA” value came out at 0.34. The “rel max FI (PoA), AMA” value in test [3] (AmaEcR, max fold induction at any concentration relative to PoA) is given as 0.26. The “rel max FI (20E), CF” value in test [4] (wild-type CfEcR, max fold induction at any concentration relative to 20E) was found to be 0.46. Further, in test [4] (wild-type CfEcR, max fold induction at any concentration relative to PoA), the “rel max FI (PoA), CF” value came to 0.00. Besides, the “rel max FI (20E), MS” value in test [5] (MsEcR) came to 0.00. The “rel max FI (PoA), MS” value in test [5] (MsEcR) is listed as 0.00.

As for `CO[C@H]1C[C@@]2(C)[C@@H](C[C@H]1O)C(=O)C=C1[C@@H]2CC[C@]2(C)[C@@H]([C@@](C)(O)[C@@H](CCC(C)(C)O)OC)CC[C@@]12O` [20E-2,22-dimethyl ether], the “rel max FI (20E), NC” value in test [1] is 0.84. Besides, in test [1], the “rel max FI (PoA), NC” value turned out to be 0.86. Further, the concentration for a half-maximal effect (EC50) in test [1] was roughly 10 µM; in test [2], roughly 10 µM; in test [3], roughly 8 µM; in test [4], greater than 33 µM; in test [5] it was roughly 20 µM. The Emax came out at 24% in test [2] (read-out: rel max FI (20E), BA); 19% in test [2] (read-out: rel max FI (PoA), BA); 94% in test [3] (setting [6]); 72% in test [3] (setting [7]); 63% in test [4] (read-out: rel max FI (20E), CF); 0% in test [4] (read-out: rel max FI (PoA), CF). Further, the “rel max FI (20E), MS” value in test [5] (MsEcR) amounted to 0.15. Further, in test [5] (MsEcR), the “rel max FI (PoA), MS” value is recorded as 0.09.

Take `CO[C@@H]1C[C@H]2C(=O)C=C3[C@H](CC[C@]4(C)[C@@H]([C@@](C)(O)[C@@H](CCC(C)(C)O)OC)CC[C@@]34O)[C@@]2(C)C[C@@H]1O` [20E-3,22-dimethyl ether]: the “rel max FI (20E), NC” value in test [1] is recorded as 1.03. Also, in test [1], the “rel max FI (PoA), NC” value amounted to 1.06. Also, the EC50 in test [1] is roughly 8 µM; in test [2] it was roughly 10 µM; in test [3] it was roughly 2 µM; in test [4], greater than 33 µM; in test [5], roughly 10 µM. Further, the Emax in test [2] (read-out: rel max FI (20E), BA) was determined as 38%; in test [2] (read-out: rel max FI (PoA), BA), 30%; in test [3] (setting [6]) it was 104%; in test [3] (setting [7]), 80%; in test [4] (read-out: rel max FI (20E), CF), 46%; in test [4] (read-out: rel max FI (PoA), CF) it was 0%. In addition, the “rel max FI (20E), MS” value in test [5] (MsEcR) is 0.82. In addition, the “rel max FI (PoA), MS” value in test [5] (MsEcR) came out at 0.52.

Turning to `CO[C@H]1C[C@@]2(C)[C@@H](C[C@H]1O)C(=O)C=C1[C@@H]2CC[C@]2(C)[C@@H]([C@@](C)(O)[C@H](O)CCC(C)(C)O)CC[C@@]12O` [20E-2-methyl ether], the “rel max FI (20E), NC” value in test [1] is 0.82. Moreover, the “rel max FI (PoA), NC” value in test [1] worked out at 0.84. Moreover, the EC50 was roughly 8 µM in test [1]; greater than 33 µM in test [2]; roughly 10 µM in test [3]; greater than 33 µM in test [4]; roughly 20 µM in test [5]. Moreover, the Emax in test [2] (read-out: rel max FI (20E), BA) came to 3%; in test [2] (read-out: rel max FI (PoA), BA), 3%; in test [3] (setting [6]) it was 65%; in test [3] (setting [7]) it was 50%; in test [4] (read-out: rel max FI (20E), CF) it was 14%; in test [4] (read-out: rel max FI (PoA), CF), 0%. The “rel max FI (20E), MS” value in test [5] (MsEcR) is listed as 0.16. In test [5] (MsEcR), the “rel max FI (PoA), MS” value worked out at 0.10.
